Patent publication US20180244625A1, “FUNGICIDAL COMPOSITIONS” (Syngenta Participations AG, priority 2015, published 2018)
Like-named read-outs stand apart in the source and are kept apart here.

System: Uncinula necator
Experiment: Uncinula necator/Grape (powdery mildew on grape), preventive spray test on grape seedlings
Type: in vivo
Conditions: Erysiphe necator
Source text: A synergistic effect exists whenever the action of an active ingredient combination is greater than the sum of the actions of the individual components. The action to be expected E for a given active ingredient combination obeys the so-called COLBY formula and can be calculated as follows (COLBY, S. R. “Calculating synergistic and antagonistic responses of herbicide combination”, Weeds, Vol. 15, pages 20-22; 1967): ppm=milligrams of active ingredient (=a.i.) per liter of spray mixture X=% action by active ingredient (A) using p ppm of active ingredient Y=% action by active ingredient (B) using q ppm of active ingredient. According to COLBY, the expected (additive) action of active ingredients (A)+(B) using p+q ppm of active ingredient is [formula] If the action actually observed (O) is greater than the expected action (E), then the action of the combination is super-additive, i.e. there is a synergistic effect. In mathematical terms, synergism corresponds to a positive value for the difference of (O-E). In the case of purely complementary addition of activities (expected activity), said difference (O-E) is zero. A negative value of said difference (O-E) signals a loss of activity compared to the expected activity. Uncinula necator/Grape (Powdery Mildew on Grape) Five-week-old grape seedlings cv. Gutedel were treated with the formulated testcompound in a spray chamber. One day after application grape plants were inoculated by shaking plants infected with grape powdery mildew above the test plants. After an incubation period of 7 days at 26° C. and 60% r. h. under a light regime of 14/10 h (light/dark) the disease incidence was assessed.

Compound | inhibition at 1 pg/mL (Flutianil 0.000001 mg/l alone) | inhibition at 10 pg/mL (Flutianil 0.00001 mg/l alone, read-out: Flutianil Inhibition (%)) | inhibition at 0.0001 µg/mL (Flutianil 0.0001 mg/l alone, read-out: Flutianil Inhibition (%)) | inhibition at 0.001 µg/mL (Flutianil 0.001 mg/l alone, read-out: Flutianil Inhibition (%)) | inhibition at 0.01 µg/mL (Flutianil 0.01 mg/l alone, read-out: Flutianil Inhibition (%)) | inhibition at 0.1 µg/mL (168 h, Compound 1.001 0.1 mg/l alone, grape seedlings cv. Gutedel, 7 days after inoculation) | inhibition at 10 pg/mL (Compound 1.001 0.00001 mg/l alone, read-out: Compound 1.001 inhibition (%)) | inhibition at 0.0001 µg/mL (Compound 1.001 0.0001 mg/l alone, read-out: Compound 1.001 inhibition (%)) | inhibition at 0.001 µg/mL (Compound 1.001 0.001 mg/l alone, read-out: Compound 1.001 inhibition (%)) | inhibition at 0.01 µg/mL (Compound 1.001 0.01 mg/l alone, read-out: Compound 1.001 inhibition (%))
COc1ccccc1N1CCS/C1=C(/C#N)Sc1cc(C(F)(F)F)ccc1F [Flutianil, (2Z)-{[2-fluoro-5-(trifluoromethyl)phenyl]sulfanyl}[3-(2-methoxyphenyl)-1,3-thiazolidin-2-ylidene]acetonitrile] | 0% | 1.3% | 1% | 26.8% | 100% | – | – | – | – | –
CON(C(=O)c1cn(C)nc1C(F)F)C(C)Cc1c(Cl)cc(Cl)cc1Cl (stereo not shown) [Compound 1.001, 3-(difluoromethyl)-N-methoxy-1-methyl-N-[1-methyl-2-(2,4,6-trichlorophenyl)ethyl]pyrazole-4-carboxamide] | – | – | – | – | – | 90.4% | 0% | 0% | 1.7% | 12.9%
